This note sets out measurements from PMC9782376 (2022).

Usually Kd stands for a measure of binding affinity in units of concentration. A higher Kd goes with weaker binding.

Test [1] relates to aptananozyme III (amino-DBA with (TGTA) spacer (3) on Ce4+-ion-modified C-dots) (DNA, aptamer) TGTACGACGCCAGTTTGAAGGTTCGTTCGCAGGTGTGGAGTGACGTCG
Put plainly: ITC. The following applies: 100 mM NaCl, 5 mM MgCl2; 5 mM MES pH 5.5; aptamer immobilised on Ce4+-C-dots; 20 µM aptananozyme, 600 µM dopamine titrant.

For test [2], the system named is aptananozyme IV (amino-DBA with (TGTA)2 spacer (4) on Ce4+-ion-modified C-dots) (DNA, aptamer) TGTATGTACGACGCCAGTTTGAAGGTTCGTTCGCAGGTGTGGAGTGACGTCG
Put plainly: ITC. The following applies: 100 mM NaCl, 5 mM MgCl2; 5 mM MES pH 5.5; aptamer immobilised on Ce4+-C-dots; 20 µM aptananozyme, 600 µM dopamine titrant.

Test [3] deals with DBA (free dopamine binding aptamer) (DNA, aptamer) CGACGCCAGTTTGAAGGTTCGTTCGCAGGTGTGGAGTGACGTCG
Particulars: conditions not stated.

Test [4] concerns aptananozyme V (amino-DBA with (TGTA)3 spacer (5) on Ce4+-ion-modified C-dots) (DNA, aptamer) TGTATGTATGTACGACGCCAGTTTGAAGGTTCGTTCGCAGGTGTGGAGTGACGTCG
Put plainly: ITC. The following applies: 100 mM NaCl, 5 mM MgCl2; 5 mM MES pH 5.5; aptamer immobilised on Ce4+-C-dots; 20 µM aptananozyme, 600 µM dopamine titrant.

Take `NCCc1ccc(O)c(O)c1`: the Kd in test [1] turned out to be 950 ± 30 nM; in test [2] it was 880 ± 40 nM; in test [3], 720 ± 30 nM; in test [4], 910 ± 100 nM.
